Test results as given in ChEMBL document CHEMBL2321675, “Irreversible inhibitors of cysteine proteases” (ACS Med Chem Lett, 2013).

What was measured:
Caspase-6 = target: T1, Caspase-6 (Homo sapiens, UniProt P55212); assay: Inhibition of caspase-6 (unknown origin)
T1 sequence (P55212 whole entry): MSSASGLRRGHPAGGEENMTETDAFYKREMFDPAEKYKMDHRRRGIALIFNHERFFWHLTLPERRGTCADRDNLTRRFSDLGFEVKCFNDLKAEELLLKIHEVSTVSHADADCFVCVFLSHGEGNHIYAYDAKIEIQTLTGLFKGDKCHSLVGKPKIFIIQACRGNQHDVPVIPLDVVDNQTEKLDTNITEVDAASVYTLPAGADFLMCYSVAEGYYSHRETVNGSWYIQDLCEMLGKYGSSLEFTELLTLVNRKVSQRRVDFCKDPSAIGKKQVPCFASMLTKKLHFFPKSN

Caspase-10 = target: T2, Caspase-10 (Homo sapiens, UniProt Q92851); assay: Inhibition of caspase-10 (unknown origin)
T2 sequence (Q92851 whole entry): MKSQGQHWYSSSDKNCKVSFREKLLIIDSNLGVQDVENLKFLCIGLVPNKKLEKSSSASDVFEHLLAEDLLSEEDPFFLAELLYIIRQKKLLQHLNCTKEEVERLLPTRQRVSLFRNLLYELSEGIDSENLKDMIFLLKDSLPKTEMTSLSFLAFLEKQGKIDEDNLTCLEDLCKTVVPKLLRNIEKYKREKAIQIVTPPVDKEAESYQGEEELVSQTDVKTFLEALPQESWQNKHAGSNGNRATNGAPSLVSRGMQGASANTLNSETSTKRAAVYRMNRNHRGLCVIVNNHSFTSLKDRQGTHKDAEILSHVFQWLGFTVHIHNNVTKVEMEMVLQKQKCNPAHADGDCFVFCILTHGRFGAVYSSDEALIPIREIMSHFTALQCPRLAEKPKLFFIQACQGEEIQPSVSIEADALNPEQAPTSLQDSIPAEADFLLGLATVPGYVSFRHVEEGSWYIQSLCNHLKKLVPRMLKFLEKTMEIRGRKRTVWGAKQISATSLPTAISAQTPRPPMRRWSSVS

Caspase-5 = target: T3, Caspase-5 (Homo sapiens, UniProt P51878); assay: Inhibition of caspase-5 (unknown origin)
T3 sequence (P51878 whole entry): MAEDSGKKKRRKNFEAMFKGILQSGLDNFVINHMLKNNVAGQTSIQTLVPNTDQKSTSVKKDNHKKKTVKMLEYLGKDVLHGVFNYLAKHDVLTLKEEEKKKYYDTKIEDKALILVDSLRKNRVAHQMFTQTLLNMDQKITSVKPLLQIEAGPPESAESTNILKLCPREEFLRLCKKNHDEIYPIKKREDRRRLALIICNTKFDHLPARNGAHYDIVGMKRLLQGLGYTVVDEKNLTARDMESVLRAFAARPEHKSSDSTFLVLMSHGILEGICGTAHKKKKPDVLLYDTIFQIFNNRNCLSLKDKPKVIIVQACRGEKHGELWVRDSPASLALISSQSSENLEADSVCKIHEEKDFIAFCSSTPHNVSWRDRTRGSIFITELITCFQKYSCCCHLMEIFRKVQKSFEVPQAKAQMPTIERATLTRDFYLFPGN

Caspase-7 = target: T4, Caspase-7 (Homo sapiens, UniProt P55210); assay: Inhibition of caspase-7 (unknown origin)
T4 sequence (P55210 whole entry): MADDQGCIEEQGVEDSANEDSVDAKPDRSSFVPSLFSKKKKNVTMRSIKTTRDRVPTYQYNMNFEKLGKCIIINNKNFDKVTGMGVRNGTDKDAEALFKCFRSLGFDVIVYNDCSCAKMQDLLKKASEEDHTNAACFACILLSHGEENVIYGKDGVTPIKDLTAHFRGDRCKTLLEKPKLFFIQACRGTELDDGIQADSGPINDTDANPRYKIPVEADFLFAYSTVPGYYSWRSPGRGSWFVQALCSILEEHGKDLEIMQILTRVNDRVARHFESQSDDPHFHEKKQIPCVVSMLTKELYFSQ

Caspase-4 = target: T5, Caspase-4 (Homo sapiens, UniProt P49662); assay: Inhibition of caspase-4 (unknown origin)
T5 sequence (P49662 whole entry): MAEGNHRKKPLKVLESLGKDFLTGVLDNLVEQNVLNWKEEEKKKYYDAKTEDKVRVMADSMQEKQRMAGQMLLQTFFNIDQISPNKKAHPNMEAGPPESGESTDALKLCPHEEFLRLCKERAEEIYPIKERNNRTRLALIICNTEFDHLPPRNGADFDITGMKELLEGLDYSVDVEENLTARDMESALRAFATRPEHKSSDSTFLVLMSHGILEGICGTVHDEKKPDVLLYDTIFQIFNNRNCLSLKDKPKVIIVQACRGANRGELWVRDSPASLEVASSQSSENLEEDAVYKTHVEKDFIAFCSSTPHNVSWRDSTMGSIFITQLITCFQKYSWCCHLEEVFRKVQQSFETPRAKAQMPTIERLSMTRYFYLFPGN

Caspase-9 = target: T6, Caspase-9 (Homo sapiens, UniProt P55211); assay: Inhibition of caspase-9 (unknown origin)
T6 sequence (P55211 whole entry): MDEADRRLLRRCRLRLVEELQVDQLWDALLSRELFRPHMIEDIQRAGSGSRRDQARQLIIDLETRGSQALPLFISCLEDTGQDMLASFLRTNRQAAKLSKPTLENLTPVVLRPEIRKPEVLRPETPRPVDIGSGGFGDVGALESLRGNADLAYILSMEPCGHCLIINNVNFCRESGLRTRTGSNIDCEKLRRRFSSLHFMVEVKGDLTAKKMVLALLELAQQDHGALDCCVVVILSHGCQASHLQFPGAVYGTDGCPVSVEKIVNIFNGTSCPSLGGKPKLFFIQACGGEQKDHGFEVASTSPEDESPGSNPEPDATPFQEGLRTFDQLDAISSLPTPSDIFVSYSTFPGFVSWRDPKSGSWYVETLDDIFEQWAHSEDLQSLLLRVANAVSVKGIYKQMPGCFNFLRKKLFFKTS

Caspase-8 = Caspase-8 (Homo sapiens, UniProt Q14790); assay: Inhibition of caspase-8 (unknown origin)
Caspase-2 = target: T7, Caspase-2 (Homo sapiens, UniProt P42575); assay: Inhibition of caspase-2 (unknown origin)
T7 sequence (P42575 whole entry): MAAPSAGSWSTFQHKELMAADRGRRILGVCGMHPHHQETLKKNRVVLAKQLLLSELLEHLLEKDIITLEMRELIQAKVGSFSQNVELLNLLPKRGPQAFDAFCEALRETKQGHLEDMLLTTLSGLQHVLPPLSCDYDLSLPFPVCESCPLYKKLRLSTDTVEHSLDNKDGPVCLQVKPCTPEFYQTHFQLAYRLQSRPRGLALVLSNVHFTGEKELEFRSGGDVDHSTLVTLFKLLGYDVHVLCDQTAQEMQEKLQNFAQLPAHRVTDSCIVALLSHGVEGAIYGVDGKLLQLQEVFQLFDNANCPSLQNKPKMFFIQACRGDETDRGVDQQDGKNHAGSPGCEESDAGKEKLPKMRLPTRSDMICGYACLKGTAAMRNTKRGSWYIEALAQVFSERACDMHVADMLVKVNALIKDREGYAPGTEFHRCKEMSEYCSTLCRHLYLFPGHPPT

Caspase-3 = target: T8, Caspase-3 (Homo sapiens, UniProt P42574); assay: Inhibition of caspase-3 (unknown origin)
T8 sequence (P42574 whole entry): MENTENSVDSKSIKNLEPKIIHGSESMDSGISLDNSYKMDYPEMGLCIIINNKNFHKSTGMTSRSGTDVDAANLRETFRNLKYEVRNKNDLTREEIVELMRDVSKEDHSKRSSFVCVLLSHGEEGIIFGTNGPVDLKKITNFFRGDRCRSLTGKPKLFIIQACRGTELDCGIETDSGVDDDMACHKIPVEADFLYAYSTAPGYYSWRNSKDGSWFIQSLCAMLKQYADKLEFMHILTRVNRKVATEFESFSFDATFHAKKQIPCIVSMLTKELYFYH

Caspase-1 = target: T9, Caspase-1 (Homo sapiens, UniProt P29466); assay: Inhibition of caspase-1 (unknown origin)
T9 sequence (P29466 whole entry): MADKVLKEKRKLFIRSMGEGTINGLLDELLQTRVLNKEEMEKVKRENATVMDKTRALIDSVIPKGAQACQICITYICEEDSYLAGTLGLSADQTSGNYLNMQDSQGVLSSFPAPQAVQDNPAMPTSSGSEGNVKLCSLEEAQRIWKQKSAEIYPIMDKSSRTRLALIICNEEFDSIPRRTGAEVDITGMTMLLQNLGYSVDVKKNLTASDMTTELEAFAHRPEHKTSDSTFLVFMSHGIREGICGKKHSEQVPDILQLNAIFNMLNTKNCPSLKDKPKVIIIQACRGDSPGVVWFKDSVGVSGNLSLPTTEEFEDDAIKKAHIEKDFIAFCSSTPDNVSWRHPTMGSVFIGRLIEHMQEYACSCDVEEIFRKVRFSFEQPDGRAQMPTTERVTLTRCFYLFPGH

Sequence of Caspase-8 (Q14790 217-374 limits assumed): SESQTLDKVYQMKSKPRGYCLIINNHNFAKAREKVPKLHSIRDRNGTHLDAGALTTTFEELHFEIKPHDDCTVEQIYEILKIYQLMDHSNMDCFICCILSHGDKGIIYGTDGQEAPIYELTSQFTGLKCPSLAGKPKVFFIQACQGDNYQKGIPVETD
Sequence of Caspase-8 (Q14790 385-479 limits assumed): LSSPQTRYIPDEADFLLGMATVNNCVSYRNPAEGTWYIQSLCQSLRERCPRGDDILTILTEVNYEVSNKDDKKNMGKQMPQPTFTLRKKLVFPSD

| Compound | IC50 (Caspase-6) [µM] | IC50 (Caspase-10) [µM] | IC50 (Caspase-5) [µM] | IC50 (Caspase-7) [µM] | IC50 (Caspase-4) [µM] | IC50 (Caspase-9) [µM] | IC50 (Caspase-8) [µM] | IC50 (Caspase-2) [µM] | IC50 (Caspase-3) [µM] | IC50 (Caspase-1) [µM] |
| --- | --- | --- | --- | --- | --- | --- | --- | --- | --- | --- |
| CC(C)(C)[C@@H](NC(=O)c1ccc(N)c(Cl)c1)C(=O)N1CCC[C@H]1C(=O)N[C@H](/C=C/S(C)(=O)=O)CC(=O)O | > 100 | 2.67 | 0.56 | 24.5 | 0.09 | 2.3 | 12.9 | > 100 | > 100 | 0.02 |
| CC(C)(C)[C@H](NC(=O)[C@H](CC(=O)O)NC(=O)OCc1ccccc1)C(=O)N1CC[C@H]1C(=O)N[C@H](/C=C/S(C)(=O)=O)CC(=O)O | > 100 | 0.42 | 35.2 | 0.5 | 5.6 | 1.1 | 4.1 | 13.1 | 0.28 | 13.2 |
| CC[C@H](C)[C@H](NC(=O)[C@H](CCC(N)=O)NC(=O)[C@@H](NC(=O)OCc1ccccc1)C(C)C)C(=O)N[C@H](/C=C/S(C)(=O)=O)CC(=O)O | 0.6 | 0.13 | 19.5 | > 100 | 0.37 | 0.8 | 0.6 | > 100 | 6.9 | 2.7 |

Continued, values first:

| IC50 (Caspase-6) [µM] | IC50 (Caspase-10) [µM] | IC50 (Caspase-5) [µM] | IC50 (Caspase-7) [µM] | IC50 (Caspase-4) [µM] | IC50 (Caspase-9) [µM] | IC50 (Caspase-8) [µM] | IC50 (Caspase-2) [µM] | IC50 (Caspase-3) [µM] | IC50 (Caspase-1) [µM] | Compound |
| --- | --- | --- | --- | --- | --- | --- | --- | --- | --- | --- |
| 100 | 3.3 | 0.75 | 23.7 | 0.18 | 1.74 | 5.93 | > 100 | 6.5 | 0.026 | CC[C@H](C)[C@H](NC(=O)[C@H](CCC(N)=O)NC(=O)[C@H](Cc1c[nH]c2ccccc12)NC(=O)OCc1ccccc1)C(=O)N[C@H](/C=C/S(C)(=O)=O)CC(=O)O |
| > 100 |  | > 100 |  |  |  |  | > 100 |  |  | CCOC(=O)/C=C/[C@H](CC(=O)O)NC(=O)[C@@H](NC(=O)[C@@H](NC(=O)[C@H](CC(=O)O)NC(=O)OCc1ccccc1)c1ccccc1)C(C)C |
